From US11150234B2, “Method for evaluating taxic behavior in response to odor substance based on olfactory sense in nematodes, and dish and behavior evaluation system used in evaluation method” (priority 2016, dated 2021) come the findings set out here.

Each structure is given as a SMILES string.

One assay concerns N2 Bristol strains. Description: Taxic behavior evaluation system of third embodiment (5 cm×2 cm×1 mm recess in solid medium covered with plate). Type of assay: in vivo, Caenorhabditis elegans. The settings on record: 23° C., IAA diluted 10^−5-fold. How it is done:
The taxic behavior based on olfactory sense was evaluated using N2 Bristol strains that are nematode strains. […] After a reagent was mixed using the culture medium composition of the assay plate, followed by autoclaving, an appropriate amount of the reagent was poured into a 9 cm dish, and the solid medium was solidified by cooling while pressing a plastic plate of 5 cm×2 cm×1 mm against the surface. After the solid medium was solidified, the plastic plate was removed, to form a recess with a length of 5 cm, a width of 2 cm, and a depth of 1 mm on the surface of the solid medium. Then, isoamyl alcohol (IAA) diluted 10^-5-fold or nonanone (Nona) diluted 10^-3-fold was arranged at the position shown by the symbol “+” on the right side of FIG. 13, and nematodes cultured at 20° C. for 4 days were arranged at the center (which corresponded to region B in FIG. 13). Thereafter, the taxic behavior of nematodes at 23° C. was observed. The number of nematodes in the regions corresponding to regions A, B, and C in FIG. 13 were counted after a lapse of 0 minutes, 5 minutes, 10 minutes, and 20 minutes. The number of nematodes remaining was calculated as a ratio of the number of nematodes in response to the number of nematodes at 0 minutes at each time. Further, the taxis index was calculated based on the formula [[…])]. Here, N (A) is the number of nematodes that moved to region A, and N (B) is the number of nematodes that moved to region B.

The test system of the next assay is wild type C. elegans. Description: Taxic behavior evaluation through olfactory sense using 5 cm×2 cm rectangular dish, without nematicide. The settings on record: for taxis index: 10 minutes after dissemination, 1 μL isoamyl alcohol diluted 1000-fold with water or 1 μL nonanone stock solution, average of 5 experiments. It counts as in vivo, Caenorhabditis elegans. The protocol:
First, a rectangular dish having a bottom surface of 5 cm×2 cm was fabricated as an example (see FIGS. 1A and B). Nematodes were disseminated into a region defined by two lines at the center of the rectangular dish in the longitudinal direction, and an attractant or a repellent was applied to the region at the left end. […] In this example, isoamyl alcohol was used as an attractant, and nonanone was used as a repellent. Specifically, isoamyl alcohol was diluted 1000-fold with water, and 1 μL thereof was applied to the region at the left end. Further, 1 μL of the stock solution of nonanone was applied to the region at the left end. As the nematodes, wild type C. elegans (10 to 50 nematodes/experiment) were used. […] Specifically, the difference in the number of nematodes between those moved to the region (region indicated by O-mark in FIG. 4, corresponding to region 1 of the first embodiment) located between the region at the left end to which an attractant or a repellent was applied and the region at the center in the longitudinal direction in which the nematodes were disseminated and those moved to the region on the opposite side (region indicated by X-mark in FIG. 4, corresponding to region 2 of the first embodiment) was determined, and the result was divided by the number of all nematodes to determine the taxis index. Taxis Index (Taxis index)={(the number of nematodes in region indicated by symbol “O”)−(the number of nematodes in region indicated by symbol “X”)}/the number of all nematodes The experiment was repeated 5 times, to determine the average of taxis indices and SEM. The taxic behavior was evaluated in the same manner as in Example 1 except that urine (1/20 dilution) of a cancer patient or urine (1/20 dilution) of a healthy individual was used as an attractant or a repellent. […] Urine obtained from a plurality of different cancer patients was used.

Where [1] appears, read: at 5 minutes, nonanone diluted 10^−3-fold.

As for `CCCCCCCC(C)=O` [nonanone], in the assay with N2 Bristol strains (setting [1]), the taxic behavior observed entry is given as “avoidance behavior”. Besides, the taxis index entry in the assay on wild type C. elegans is on record as “below −0.8”. The “nematodes showing avoidance behavior in response to the repellent” value in the assay with wild type C. elegans (10 minutes, from taxis index) was not below 90%.

`CC(C)CCO` [isoamyl alcohol]: the taxic behavior observed entry in the assay on N2 Bristol strains (setting [1]) and in the assay with N2 Bristol strains (at 20 minutes) was “migration behavior” throughout. Besides, the taxis index entry in the assay with wild type C. elegans is “over 0.8”. The “nematodes showing attraction behavior in response to the attractant” value in the assay on wild type C. elegans (10 minutes, from taxis index) is not below 90%.
